Our source for the IC50 and GI50 values is patent publication US11878973B2, “Bicyclic compounds and their uses” (NOVARTIS AG, priority 2021, dated 2024).

What is called pIC50 is the negative decadic logarithm of the IC50, by convention in mol/L.

Structures are written as SMILES. pIC50: −log10 of the molar value. Like-named read-outs stand apart in the source and are kept apart here.

One assay addresses WRN helicase (Homo sapiens (Human), UniProt Q14191). The assay can be described thus: In vitro enzymatic activity assay on WRN helicase (DNA dependent ATPase assay, ADP-Glo). The format is biochemical. The source says: An ATPase assay was set up to measure the DNA dependent ATP hydrolysis activity of WRN helicase. This assay was used also to assess the inhibition properties of compounds of the invention on DNA dependent WRN ATPase activity.
The core helicase motif of the WRN protein (aa N517-P1238) was produced for this assay (protein production as described above). […] The ADP-Glo assay kit (Promega, Madison, WI) allowing the quantification of ADP produced in ATP hydrolysis reactions was used for setting up this assay.
Time course experiments were first performed in order to determine the best enzymatic assay conditions (including buffer conditions, reaction time and concentrations of protein, ATP and DNA substrates). A typical reaction consists of 10 nM WRN protein, 0.2 nM FLAP26, and 300 micromolar ATP in the following assay buffer: 30 mM Tris pH7.5, 2 mM MgCl2, 0.02% BSA, 50 mM NaCl, 0.1% pluronic F127 prepared in DNAse free water. To evaluate the inhibition properties of compounds of the invention, serial dilutions were prepared in DMSO (10 half log dilutions from a 10 mM DMSO solution). […] The reaction was started by addition of 2.5 microliters of FLAP26 at 0.4 nM and incubated for 30 minutes at room temperature. The reaction was stopped with the addition of 5 microliters of the first ADP-Glo reagent and incubated for one hour to remove the excess amount of ATP. Afterwards, 10 microliters of ATP detection reagent was added and incubated for an additional hour before reading. Luminescence output was recorded using Tecan 1000 reader, with 5 minutes delay before reading. Each concentration of compound was tested in duplicates in the assay plate.
Following normalization of activity values for the wells to % inhibition (% inhibition=[(high control-sample)/(high control-low control)]×100), IC50 fitting was carried out from the duplicate determinations present on each plate according to [4]. Data analysis can also be carried out using commercially available software designed to derive IC50 values using 4-parameter fits (e.g. GraphPad Prism, XL fit). The reported IC50 values are the geometrical means of at least 2 independent replicates.

A further assay relates to SW48 cells. The assay can be described thus: Proliferation assay SW48 (CellTiterGlo, 96 hours). On the technique in general: ATP-based viability assays read luminescence as a measure of living cells.
The next assay has as its system DLD1-WRN-KO cells. The assay can be described thus: Proliferation assay DLD1-WRN-KO (CellTiterGlo, 96 hours; off-target effects).
Where [1] appears, read: geometric means of at least 2 determinations, read-out: WRN ATPase Activity (IC50).
Where [2] appears, read: read-out: Proliferation Assay SW48 (GI50), SW48 cell line, geometric means of at least 2 determinations.
Setting [3] is: read-out: Proliferation Assay DLD1-WRN-KO (GI50), DLD1-WRN-KO cell line, geometric means of at least 2 determinations.
The mark [4] stands for this setting: Homo sapiens, SW48, read-out: Proliferation Assay SW48 (GI50).
Where [5] appears, read: Homo sapiens, read-out: Proliferation Assay DLD1-WRN-KO (GI50).

Chain of WRN helicase (Q14191 517-1238): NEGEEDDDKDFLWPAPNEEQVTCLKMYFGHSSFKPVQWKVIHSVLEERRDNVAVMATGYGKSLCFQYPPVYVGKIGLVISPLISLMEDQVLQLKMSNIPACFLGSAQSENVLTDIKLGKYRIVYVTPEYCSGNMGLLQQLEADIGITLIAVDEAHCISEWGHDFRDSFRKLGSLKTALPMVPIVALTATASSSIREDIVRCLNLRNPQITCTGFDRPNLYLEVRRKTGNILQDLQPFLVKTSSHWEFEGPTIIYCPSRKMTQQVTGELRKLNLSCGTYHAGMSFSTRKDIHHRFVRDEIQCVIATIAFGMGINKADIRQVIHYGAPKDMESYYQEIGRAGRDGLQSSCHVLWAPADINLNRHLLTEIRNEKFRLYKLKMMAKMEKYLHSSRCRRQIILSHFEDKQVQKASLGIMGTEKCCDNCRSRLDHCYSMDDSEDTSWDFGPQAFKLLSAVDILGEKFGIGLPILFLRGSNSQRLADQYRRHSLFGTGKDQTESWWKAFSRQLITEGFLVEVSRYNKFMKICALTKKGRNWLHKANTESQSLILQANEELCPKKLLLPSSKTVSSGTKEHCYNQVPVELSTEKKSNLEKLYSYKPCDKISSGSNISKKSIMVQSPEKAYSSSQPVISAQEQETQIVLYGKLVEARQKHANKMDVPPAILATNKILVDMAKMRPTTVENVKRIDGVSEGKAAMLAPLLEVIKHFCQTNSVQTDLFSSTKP

In the case of `CCc1c(N2CCN(C(=O)c3nccc(Cl)c3O)CC2)c(=O)n2nc(C3=CC[C@H](OC)CC3)nc2n1CC(=O)Nc1ccc(C(F)(F)F)nc1Cl` (single isomer, unassigned) [Example 24b], the pIC50 on WRN helicase (setting [1]) is 7.00. For the same compound, the GI50 was 50 nM with SW48 cells (setting [2]) and more than 10000 nM in the assay on DLD1-WRN-KO cells (setting [3]).

As for `CCc1c(N2CCN(C(=O)c3ncccc3O)CC2)c(=O)n2nc(C3=CC[C@H](OC)CC3)nc2n1CC(=O)Nc1ccc(C(F)(F)F)nc1Cl` (single isomer, unassigned) [Example 25a, ((R)—N-(2-chloro-6-(trifluoromethyl)pyridin-3-yl)-2-(5-ethyl-6-(4-(3-hydroxypicolinoyl)piperazin-1-yl)-2-(4-methoxycyclohex-1-en-1-yl)-7-oxo-[1,2,4]triazolo[1,5-a]pyrimidin-4(7H)-yl)acetamide) or ((S)—N-(2-chloro-6-(trifluoromethyl)pyridin-3-yl)-2-(5-ethyl-6-(4-(3-hydroxypicolinoyl)piperazin-1-yl)-2-(4-methoxycyclohex-1-en-1-yl)-7-oxo-[1,2,4]triazolo[1,5-a]pyrimidin-4(7H)-yl)acetamide)], the pIC50 at WRN helicase (setting [1]) was 6.80. The results for the GI50 in the assay with SW48 cells (setting [2]) and in the assay with DLD1-WRN-KO cells (setting [3]) were 50 nM and more than 10000 nM, respectively.

Regarding `CCc1c(N2CCN(C(=O)c3ncccc3O)CC2)c(=O)n2nc(C3=CC[C@H](OC)CC3)nc2n1CC(=O)Nc1ccc(C(F)(F)F)nc1Cl` (single isomer, unassigned) [Example 25b, ((R)—N-(2-chloro-6-(trifluoromethyl)pyridin-3-yl)-2-(5-ethyl-6-(4-(3-hydroxypicolinoyl)piperazin-1-yl)-2-(4-methoxycyclohex-1-en-1-yl)-7-oxo-[1,2,4]triazolo[1,5-a]pyrimidin-4(7H)-yl)acetamide) or ((S)—N-(2-chloro-6-(trifluoromethyl)pyridin-3-yl)-2-(5-ethyl-6-(4-(3-hydroxypicolinoyl)piperazin-1-yl)-2-(4-methoxycyclohex-1-en-1-yl)-7-oxo-[1,2,4]triazolo[1,5-a]pyrimidin-4(7H)-yl)acetamide)], the pIC50 on WRN helicase (setting [1]) was 7.00. Moreover, the GI50 in the assay on SW48 cells (setting [2]) is 50 nM; with DLD1-WRN-KO cells (setting [3]), more than 10000 nM.

Turning to `CCc1c(N2CCN(C(=O)c3ncccc3O)CC2)c(=O)n2nc(C3=CC[C@H](OC)CC3)nc2n1CC(=O)Nc1ccc(C(F)(F)F)cc1C` (single isomer, unassigned) [Example 80a, ((R)-2-(5-ethyl-6-(4-(3-hydroxypicolinoyl)piperazin-1-yl)-2-(4-methoxycyclohex-1-en-1-yl)-7-oxo-[1,2,4]triazolo[1,5-a]pyrimidin-4(7H)-yl)-N-(2-methyl-4-(trifluoromethyl)phenyl)acetamide) or ((S)-2-(5-ethyl-6-(4-(3-hydroxypicolinoyl)piperazin-1-yl)-2-(4-methoxycyclohex-1-en-1-yl)-7-oxo-[1,2,4]triazolo[1,5-a]pyrimidin-4(7H)-yl)-N-(2-methyl-4-(trifluoromethyl)phenyl)acetamide)], the pIC50 on WRN helicase (setting [1]) is 7.15. The figures for the GI50 with SW48 cells (setting [2]) and in the assay on DLD1-WRN-KO cells (setting [3]) were 70 nM and more than 10000 nM, respectively.

With `CCc1c(N2CCN(C(=O)c3ncccc3O)CC2)c(=O)n2nc(C3=CC[C@H](OC)CC3)nc2n1CC(=O)Nc1ccc(C(F)(F)F)cc1C` (single isomer, unassigned) [Example 80b, ((R)-2-(5-ethyl-6-(4-(3-hydroxypicolinoyl)piperazin-1-yl)-2-(4-methoxycyclohex-1-en-1-yl)-7-oxo-[1,2,4]triazolo[1,5-a]pyrimidin-4(7H)-yl)-N-(2-methyl-4-(trifluoromethyl)phenyl)acetamide) or ((S)-2-(5-ethyl-6-(4-(3-hydroxypicolinoyl)piperazin-1-yl)-2-(4-methoxycyclohex-1-en-1-yl)-7-oxo-[1,2,4]triazolo[1,5-a]pyrimidin-4(7H)-yl)-N-(2-methyl-4-(trifluoromethyl)phenyl)acetamide)], on WRN helicase (setting [1]), the pIC50 is 7.10. Further, the results for the GI50 in the assay with SW48 cells (setting [2]) and in the assay with DLD1-WRN-KO cells (setting [3]) were 60 nM and more than 10000 nM, respectively.

Consider `CCc1c(N2CCN(C(=O)c3ncccc3O)CC2)c(=O)n2nc(C3=CC[C@H](OC)CC3)nc2n1CC(=O)Nc1ccc(C(F)(F)F)cc1` (single isomer, unassigned) [Example 81a, ((R)-2-(5-ethyl-6-(4-(3-hydroxypicolinoyl)piperazin-1-yl)-2-(4-methoxycyclohex-1-en-1-yl)-7-oxo-[1,2,4]triazolo[1,5-a]pyrimidin-4(7H)-yl)-N-(4-(trifluoromethyl)phenyl)acetamide or ((S)-2-(5-ethyl-6-(4-(3-hydroxypicolinoyl)piperazin-1-yl)-2-(4-methoxycyclohex-1-en-1-yl)-7-oxo-[1,2,4]triazolo[1,5-a]pyrimidin-4(7H)-yl)-N-(4-(trifluoromethyl)phenyl)acetamide], for which the pIC50 at WRN helicase (setting [1]) is 7.40. The GI50 in the assay with SW48 cells (setting [2]) is 70 nM; with DLD1-WRN-KO cells (setting [3]), more than 10000 nM.

In the case of `CCc1c(N2CCN(C(=O)c3ncccc3O)CC2)c(=O)n2nc(C3=CC[C@H](OC)CC3)nc2n1CC(=O)Nc1ccc(C(F)(F)F)cc1` (single isomer, unassigned) [Example 81b, ((R)-2-(5-ethyl-6-(4-(3-hydroxypicolinoyl)piperazin-1-yl)-2-(4-methoxycyclohex-1-en-1-yl)-7-oxo-[1,2,4]triazolo[1,5-a]pyrimidin-4(7H)-yl)-N-(4-(trifluoromethyl)phenyl)acetamide or ((S)-2-(5-ethyl-6-(4-(3-hydroxypicolinoyl)piperazin-1-yl)-2-(4-methoxycyclohex-1-en-1-yl)-7-oxo-[1,2,4]triazolo[1,5-a]pyrimidin-4(7H)-yl)-N-(4-(trifluoromethyl)phenyl)acetamide], on WRN helicase (setting [1]), the pIC50 was 7.40. Moreover, the values for the GI50 with SW48 cells (setting [2]) and in the assay with DLD1-WRN-KO cells (setting [3]) were 60 nM and more than 10000 nM, respectively.

In the case of `CCc1c(N2CCN(C(=O)c3ncnc(C)c3O)[C@@H](C)[C@H]2C)c(=O)n2nc(C3=CCOCC3)nc2n1CC(=O)Nc1ccc(C(F)(F)F)cc1Cl` (single isomer, unassigned) [Example 121], the pIC50 at WRN helicase (setting [1]) is 6.07. For the same compound, the GI50 with SW48 cells (setting [2]) is 1740 nM; in the assay with DLD1-WRN-KO cells (setting [3]), more than 10000 nM.

With `CCc1c(N2CCN(C(=O)c3ncnc(C)c3O)[C@H](C)[C@@H]2C)c(=O)n2nc(C3=CCOCC3)nc2n1CC(=O)Nc1ccc(C(F)(F)F)cc1Cl` (single isomer, unassigned) [Example 122], on WRN helicase (setting [1]), the pIC50 is 6.82. Further, the GI50 in the assay on SW48 cells (setting [2]) is 100 nM; with DLD1-WRN-KO cells (setting [3]), more than 10000 nM.

On to `CCc1c(N2CCN(C(=O)c3ncnc(C)c3O)[C@@H]3CC[C@@H]32)c(=O)n2nc(C3=CCOCC3)nc2n1CC(=O)Nc1ccc(C(F)(F)F)cc1Cl` (single isomer, unassigned) [Example 131], for which, at WRN helicase (setting [1]), the pIC50 was 6.96. The GI50 is 30 nM in the assay with SW48 cells (setting [2]) and more than 10000 nM with DLD1-WRN-KO cells (setting [3]).

As to `CCc1c(N2CCN(C(=O)c3ncnc(C)c3O)[C@@H]3CC[C@@H]32)c(=O)n2nc(C3=CCOCC3)nc2n1CC(=O)Nc1ccc(C(F)(F)F)cc1Cl` (single isomer, unassigned) [Example 132], the pIC50 on WRN helicase (setting [1]) is 6.05. Besides, the GI50 in the assay on SW48 cells (setting [2]) is 490 nM; in the assay on DLD1-WRN-KO cells (setting [3]), more than 10000 nM.

Turning to `CCc1c(N2CCN(C(=O)c3nccc(Cl)c3O)CC2)c(=O)n2nc(N3CCOCC3)nc2n1CC(=O)Nc1ccc(C(F)(F)F)cc1Cl` [Example 1, 2-(6-(4-(4-chloro-3-hydroxypicolinoyl)piperazin-1-yl)-5-ethyl-2-morpholino-7-oxo-[1,2,4]triazolo[1,5-a]pyrimidin-4(7H)-yl)-N-(2-chloro-4-(trifluoromethyl)phenyl)acetamide], the pIC50 at WRN helicase (setting [1]) and on WRN helicase (read-out: WRN ATPase inhibition (IC50)) was 7.30 in each case. Besides, the GI50 in the assay on SW48 cells (setting [4]) is 50 nM; with SW48 cells (Homo sapiens, SW48, read-out: proliferation GI50 in SW48, as stated in text), 50 nM; with DLD1-WRN-KO cells (Homo sapiens, DLD-1, read-out: proliferation GI50 in DLD1 WRN-KO), more than 10000 nM; in the assay on DLD1-WRN-KO cells (setting [5]), more than 10000 nM.

On to `CCc1c(N2CCN(C(=O)c3ncccc3O)CC2)c(=O)n2nc(N3CCOCC3)nc2n1CC(=O)Nc1ccc(C(F)(F)F)cc1Cl` [Example 2, N-(2-chloro-4-(trifluoromethyl)phenyl)-2-(5-ethyl-6-(4-(3-hydroxypicolinoyl)piperazin-1-yl)-2-morpholino-7-oxo-[1,2,4]triazolo[1,5-a]pyrimidin-4(7H)-yl)acetamide], for which, on WRN helicase (setting [1]), the pIC50 is 7.10. For the same compound, the results for the GI50 with SW48 cells (setting [4]) and in the assay with DLD1-WRN-KO cells (setting [5]) were 190 nM and more than 10000 nM, respectively.
